The source of these data is patent US5126345A, “Bis (hydroxymethyl) cyclobutyl triazolopyrimidines” (E. R. Squibb & Sons, Inc., priority 1991, dated 1992).

Read-outs that look alike come from different tables or passages of the source.

Common to all, as to type: cell-based
The subject of assay [1] is HSV-1 (herpes simplex virus type 1, strain Schooler). The assay is described as follows: HSV-1 antiviral assay, plaque reduction in WI-38 cell culture monolayers. The settings on record: Human alphaherpesvirus 1, 96 h; at least 50% plaque reduction; WI-38 cells; 4 days incubation at 37° C; read-out: ID50 HSV-1. The method, then: (§1) Assays were performed in cell culture systems to determine the concentrations of compounds that are effective in preventing several kinds of viral infections.
(§2) HSV-1 (herpes simplex virus type 1, strain Schooler), HSV-2 (herpes simplex virus type 2, strain 186), VZV (varicella zoster virus, strain ELLEN), HCMV (human cytomegalovirus, strain AD 169), MuLV (murine leukemia virus, strain CAS), HIV (human immunodeficiency virus, strain HTLV-IIIB).
(§3) HSV-1, HSV-2, HCMV, and VZV antiviral assays: Virus was adsorbed to WI-38 cell culture monolayers in 6 well culture plates (Costar, Cambridge, MA) for 1 hour prior to addition of maintenance medium containing duplicate dilutions of the test compound. Inhibition of plaque development was evaluated on fixed and stained monolayers after 4 days incubation at 37° C. for HSV-1 and HSV-2 and after 6-7 days incubation at 37° C. for HCMV and VZV. ID50 values were determined from the drug concentration which conferred at least a 50% plaque reduction compared to virus controls.

The subject of assay [2] is VZV (varicella zoster virus, strain ELLEN). The assay is described as follows: VZV antiviral assay, plaque reduction in WI-38 cell culture monolayers. How it is done:
as §1, §2, §3

In assay [3] the test system is HSV-2 (herpes simplex virus type 2, strain 186). The assay is described as follows: HSV-2 antiviral assay, plaque reduction in WI-38 cell culture monolayers. The settings on record: Human alphaherpesvirus 2, 96 h; at least 50% plaque reduction; WI-38 cells; 4 days incubation at 37° C; read-out: ID50 HSV-2. How it is done: as §1, §2, §3
Assay [4] deals with HCMV (human cytomegalovirus, strain AD 169). The assay is described as follows: HCMV antiviral assay, plaque reduction in WI-38 cell culture monolayers. The method, then:
as §1, §2, §3

Assay [5] has as its system MuLV (murine leukemia virus, strain CAS). The assay is described as follows: MuLV antiviral assay, syncytial plaques, SC-1 cells with XC cell overlay. As to conditions: SC1, read-out: ID50 MuLV. The method, then:
as §1, §2
MuLV antiviral assay: Antiviral assays using MuLV were performed with some modification, as described by Rowe et al. and Shannon et al.. SC-1 cells were planted at approximately 2×10^5 cell per well in 6 well plates. After overnight incubation at 37° C., the cell cultures were sensitized with DEAE-Dextran for one hour at 37° C., rinsed and inoculated with MuLV. Cultures were re-fed with growth medium containing different concentrations of the test compound. After three more days at 37° C., cultures were re-fed with fresh medium plus test compounds and incubated at 37° C. for an additional 3 days. Cultures were then washed to remove medium, ultraviolet light irradiated, and planted with approximately 5×10^5 XC cells per well in cell growth medium containing the appropriate concentration of the test compound. […] Finally the cultures were rinsed, stained and syncytial plaques were counted. […]

[6] abbreviates: Human alphaherpesvirus 3, at least 50% plaque reduction, WI-38 cells, 6-7 days incubation at 37° C, read-out: ID50 VZV.
Setting [7] is: Human betaherpesvirus 5, WI-38, read-out: ID50 HCMV.
Setting [8] is: Human alphaherpesvirus 3, WI-38, read-out: ID50 VZV.

Regarding `O=c1[nH]c(=O)n([C@H]2C[C@@H](CO)[C@@H]2CO)cc1I` (relative stereo) [(1α,2β,3α)-1-[2,3-Bis(hydroxymethyl)cyclobutyl]-5-iodo-2,4(1H,3H)-pyrimidinedione], the IC50 in assay [1] lay within 6 to 14 µM; in assay [2] (setting [6]) it was 14 to 28 µM.
`Nc1ncnc2c1ncn2[C@H]1C[C@@H](CO)[C@@H]1CO` (relative stereo) [(1α,2β,3α)-3-(6-Amino-9H-purin-9-yl)1,2-cyclobutanedimethanol]: the IC50 is 8 µM in assay [1], 4 to 8 µM in assay [3], 0.8 to 2 µM in assay [2] (setting [6]) and 0.8 µM in assay [4] (setting [7]).
For `Nc1ccn([C@H]2C[C@@H](CO)[C@@H]2CO)c(=O)n1` (relative stereo) [(1α,2β,3α)-4-Amino-1-[2,3-bis(hydroxymethyl)cyclobutyl]-2(1H)-pyrimidinone], the IC50 in assay [1] was 444 µM; in assay [3] it was 444 µM; in assay [2] (setting [8]), 22 µM; in assay [4] (Human betaherpesvirus 5, at least 50% plaque reduction, WI-38 cells, 6-7 days incubation at 37° C, read-out: ID50 HCMV) it was 22 to 44 µM.
In the case of `Nc1nc2c(nnn2[C@H]2C[C@@H](CO)[C@@H]2CO)c(=O)[nH]1` (relative stereo) [(1α,2β,3α)-5-Amino-3-[2,3-bis(hydroxymethyl)cyclobutyl]-3,6-dihydro-7H-1,2,3-triazolo[4,5-d]pyrimidin-7-one], the results for the IC50 in assay [1], in assay [3] and in assay [4] (setting [7]) were 7.5 µM, 7.5 µM and 376 µM, respectively.
Consider `Nc1nc2c(ncn2[C@H]2C[C@@H](CO)[C@@H]2CO)c(=O)[nH]1` (relative stereo) [(1α,2β,3α)-9-[2,3-Bis(hydroxymethyl)cyclobutyl]guanine], for which the IC50 is 0.08 to 0.2 µM in assay [1]; 0.04 to 0.08 µM in assay [3]; 0.2 µM in assay [2] (setting [8]); 3.8 µM in assay [4] (setting [7]); 3.8 µM in assay [5].
On to `O=c1[nH]c(=O)n([C@H]2C[C@@H](CO)[C@@H]2CO)cc1/C=C/Br` (relative stereo) [[1α(E),2β,3α]-1-[2,3-Bis(hydroxymethyl)cyclobutyl]-5-(2-bromoethenyl)-2,4(1H,3H)pyrimidinedione], for which the results for the IC50 in assay [1] and in assay [2] (setting [6]) were 10 to 30 µM and 0.03 to 0.06 µM, respectively.
